Here are results for 6 compounds from US20260076988A1 (The Cleveland Clinic Foundation, priority 2019, published 2026).

Each structure is given as a SMILES string. Some results are limits rather than exact numbers.

Series [1] relates to LL3 lung cancer cells. The series can be described thus: Syngeneic disseminated lung cancer model (LL3, tail vein). Type of series: in vivo, C57BL/6 mice.
Text: (§1) 2-sided Mann-Whitney test.
as §1, §1

For series [2] the following is noted: cited from earlier work.
The test system of series [3] is AML cells (MOLM13, OCI-AML3, THP1). The series can be described thus: AML cell proliferation after a single dose. In kind it is cell-based. As to conditions: decitabine, deoxycytidine 0.5 μM, 5-azacytidine, cytidine 5 μM. As for the experimental part:
A) Experiment schema. Vehicle, natural deoxycytidine (dC) 0.5 uM, natural cytidine (C) 5 uM, Dec 0.5 uM, or 5Aza 5 uM were added once to AML cells at 0 hours. B) Cell counts. By automated counter. Means±SD for 3 independent biological replicates for each cell line. C) Dec and 5Aza have opposite effects on dCTP levels. Measured by LCMS/MS 24 hrs after addition of Dec or 5Aza. Analyses of 2 or more independent nucleotide extractions from 3 different AML cells lines. Means±SD; p-values paired t-test, 1-sided. D) Gene expression 72 hours after Dec or 5Aza. Gene expression by QRT-PCR, relative to average expression in vehicle-treated controls. Means±SD for 3 independent biological replicates in each of 3 AML cell lines; p-values unpaired t-test vs vehicle, 2-sided. E) Western blot 72 hours after Dec or 5Aza. AML cells THP1, OCI-AML3 and K562. Western blots were reproduced in three independent biological replicates.

Series [4] deals with patient-derived AML cells. The series can be described thus: Patient-derived xenotransplant (PDX) model of chemorefractory AML. As to conditions: for added benefit of ribonucleotide reductase inhibitor to THU+decitabine: dT 2 g/kg IP, hydroxyurea 100 mg/kg IP Day 1 before THU+decitabine days 2 and 3; for human CD45+ (hCD45+) AML cells in bone marrow: Day 45.
Text: NSG mice were tail-vein inoculated with patient-derived AML cells (1×10^6 cells/mouse) and randomized to (i) PBS vehicle control; (ii) CDA-inhibition by intra-peritoneal (IP) tetrahydrouridine (THU) and de novo pyrimidine synthesis inhibition by IP thymidine (dT); (iii) Dec; (iv) THU and Dec; (v) THU, Dec and dT (n=5/group). PBS, THU+dT mice were euthanized for distress on D42, and other mice were sacrificed for analysis on D63. […] C) Bone marrow human (hCD45) and murine (mCd45) myelopoiesis content. Flow-cytometry. Median±IQR. p-value Mann-Whitney test 2-sided. […] Median±IQR. p-value Mann-Whitney test 2-sided.
NSG mice were tail-vein inoculated with patient-derived AML cells (1×10^6 cells/mouse) and on Day 9 after inoculation randomized to the treatments as shown (n=7/group). Mice were euthanized if there were signs of distress. A) Experiment schema; B) Time-to-distress and euthanasia. C) Bone marrow human (hCD45) and murine (mCd45) myelopoiesis content. Femoral bones flushed after euthanasia. Measured by flow-cytometry. Median±IQR. D) Spleen weights at time-of-distress/euthanasia. Median±IQR. E) Spleens at the time-of-distress/euthanasia.
NSG mice were tail-vein inoculated with patient-derived AML cells (1×10^6 cells/mouse) and randomized to the treatments shown (n=5/group). Blood counts were obtained periodically by tail-vein phlebotomy. Mice were euthanized for signs of distress. A) Experiment schema; B) Time-to-distress. Log-rank test. […] D) Bone marrow replacement by AML. Bone marrow human and murine CD45+ cells measured by flow-cytometry (FIG. 32) after euthanasia (time-points panel B). Median±IQR. p-value Mann-Whitney test 2-sided. […] Flow cytometry (FIG. 33).
C) Percentage of human CD45+ (huCD45) positive cells in bone marrow. Flow cytometry. Median±IQR. p-value Mann-Whitney test 2-sided. 5 mice in each treatment group analyzed.
Mice were euthanized for signs of distress. A) Experiment schema; B) Time-to-distress. p-value Log-rank test. C) Bone marrow human leukemia cell burden at time-of-distress. Flow cytometry for human CD45+ cells. Median±IQR. p-value Mann-Whitney test 2-sided. […] E) Spleen weights at time-of-distress. Median±IQR. p-value Mann-Whitney test 2-sided.
NSG mice were tail-vein inoculated with patient-derived AML cells (1×10^6 cells/mouse) and on Day 5 after inoculation randomized to the treatments as shown (n=7/group). Mice were euthanized if there were signs of distress.
In series [5] the test system is Dck, Uck2, Cda and Cad. The series can be described thus: F1339 cells: pyrimidine metabolism enzyme expression by QRT-PCR and Western blot. Type of series: cell-based, murine. To be noted: lung cancer cells, within 72-96 hours. Here is the method: FIG. 2. […] F1339 p53-null cancer cells were seeded at D0 and treated with DMSO, deoxycytidine (DC, 0.5 μM), cytidine (CY, 5 μM), Dec (0.5 μM) and 5Aza (5 μM). […] Cell counts by automated counter, mean±SD. […] Gene expression by Q-PCR, median±interquartile range (IQR) (3 biological replicates), *p<0.05, **p<0.01. 2-sided Mann-Whitney test. […] Western blot.
RNA was extracted using Trizol reagent (Invitrogen) before the generation of complementary DNA using the iScript™ cDNA Synthesis Kit (Bio-rad). Quantitative PCR was run on StepOnePlus Real-Time PCR System (Applied Biosystems), using comparative Ct value method to quantify the expression of target genes in different samples. Gene expression was normalized to the housekeeping gene β-actin.
Tumor cells were lysed with RIPA lysis buffer and protein concentrations determined by BCA protein assay kit (Thermo Fisher Scientific). Samples with equal quantity (40 μg) of total protein were mixed with 4× loading buffer and 10× sample reducing reagent (Thermo Fisher Scientific), subjected to electrophoresis on a 12% (v/v) SDS-polyacrylamide gel, then transferred onto polyvinylidene fluoride membranes. After blocking with 5% dried skimmed milk, the membranes were washed three times and incubated with primary antibodies at 4° C. overnight. After washing, the membranes were further incubated with corresponding horseradish peroxidase-conjugated secondary antibodies. The membranes were then treated with Pierce™ ECL substrates (Thermo Scientific) then visualized using X-ray film.
(In general: In western blotting, separated proteins are transferred to a membrane and probed.)

In series [6] the test system is DCK, UCK2, CDA and CAD. The series can be described thus: Patients' bone marrow enzyme expression pre-treatment vs relapse, QRT-PCR. Type of series: in vivo, human. As to conditions: MDS patients' bone marrow. From the text: (§2) Serial bone marrow biopsies from the same patient were cut onto the same slide, stained for DNMT1, and the number of DNMT1-positive nuclei was quantified objectively using ImageIQ software in 13 patients and positive/negative controls (tissue blocks of HCT116 wild-type and DNMT1-knockout cells respectively). D=days of therapy. Pre-Rx=pre-treatment; HI=hematologic improvement; CR=complete remission; SD=stable disease; Rel.=relapse. Mean±SD of ×3 image segments (cellular regions) per sample; p-value paired t-test, 2-sided. C) Expression of key pyrimidine metabolism enzymes at relapse/progression on Dec. […] Bone marrow cells aspirated pre-treatment and at relapse/progression on Dec (13 patients, median duration of therapy 175 days, range 97-922) or 5Aza (14 patients, median duration of therapy 433 days, range 61-1155) were analyzed by QRT-PCR. Mean±SD technical replicates×3. Paired t-test, 2-sided. D) Expression by Western blot of DNMT1 and key pyrimidine metabolism enzymes in Dec-resistant AML cells (THP1, K562, OCI-AML3 and MOLM13), and in parental THP1 AML cells treated with vehicle, Dec or 5-azacytidine (5Aza). Western blots.
DNA isolation, reverse transcription (RT) and real-time PCR. As previously described^59. Primer sequences were:
CAD increased an average of ˜8-fold at relapse on either pro-drug, but not in all patients (FIG. 23C). The proliferation marker MKI67 increased at relapse in almost all the patients, consistent with active progression of disease (FIG. 23C).

The test system of series [7] is UCK2-knockout HAP1 leukemia cells. In words: Growth inhibition of UCK2-knockout HAP1 leukemia cells. To be noted: Homo sapiens, HAP1, read-out: GI50 (concentration for 50% growth inhibition). Type of series: cell-based. From the text: (§3) A) DCK and UCK2 knockout (KO) were confirmed by Western blot. HAP1 leukemia cells, KO by CRISPR-Cas9. B) DCK-KO lowers dCTP and UCK2-KO lowers dTTP. Analysis of independent nucleotide extractions. Means±SD; p-values unpaired t-test, 2-sided. C) Sensitivity of Wildtype, DCK-KO and UCK2-KO HAP1 leukemia cells to Dec vs 5Aza. Means±SD of 3 independent biological replicates.
(§4) Study approvals. Bone marrow samples for research were obtained from patients with AML (Acute myeloid leukemia) with written informed consent on a study protocol approved by the Cleveland Clinic Institutional Review Board (Cleveland, Ohio). Murine experiments were approved by the Cleveland Clinic Institutional Animal Care and Use Committee (Cleveland, Ohio). Sources of cell lines and animals. […] DNMT1 Immuno-detection and quantitation: Immunohistochemistry (IHC) was performed on decalcified and formalin-fixed paraffin embedded bone marrow biopsy sections (4 μm) and on positive and negative controls (parental and DNMT1-KO HCT116 cells). […] Nuclei positive for DNMT1 were identified and quantified in high resolution, large field-of-view images per ImageIQ algorithms (Image IQ Inc., Cleveland, OH) after segmentation of images and subtraction of bone as has been previously described^4.

For series [8], the system named is DNMT1. The series can be described thus: Serial patient bone marrow biopsies, DNMT1 immunohistochemistry. In kind it is in vivo, human. As to conditions: 13 patients.
Text: as §2, §4

Series [9] has as its system thoracic malignancies. To be noted: cited from earlier work.
The subject of series [10] is parental HAP1 leukemia cells. The series can be described thus: Growth inhibition of parental HAP1 leukemia cells. Type of series: cell-based. To be noted: Homo sapiens, HAP1, read-out: GI50 (concentration for 50% growth inhibition).
Text: as §3, §4

Series [11] has as its system DCK-knockout HAP1 leukemia cells. In words: Growth inhibition of DCK-knockout HAP1 leukemia cells. Type of series: cell-based. To be noted: Homo sapiens, HAP1, read-out: GI50 (concentration for 50% growth inhibition).
Text: as §3, §4

[12] abbreviates: THU+dT day 42, other treatments day 63.

For the compound `O=C1NC(O)CCN1[C@@H]1O[C@H](CO)[C@@H](O)[C@H]1O` (stereo partly drawn) [THU, tetrahydrouridine], in series [1] (in vivo studies of murine lung cancer), the “increase of efficacy of decitabine or 5-azacytidine by THU” value is approximately 2 fold. Further, the myelosuppression result in [1] (murine models of lung cancer) was “without bone marrow suppression”. In [2] (addition of THU), the “increase of oral bioavailability of decitabine and 5-azacytidine” value is approximately 10 fold; the “increase of plasma half-lives of decitabine and 5-azacytidine” value is recorded as approximately 10 fold.

Regarding `Nc1ccn([C@@H]2O[C@H](CO)[C@@H](O)[C@H]2O)c(=O)n1` [cytidine], the AML cell proliferation result in series [3] is listed as “did not impact proliferation”.

`Cc1cn([C@H]2C[C@H](O)[C@@H](CO)O2)c(=O)[nH]c1=O` [dT, deoxythymidine]: the “added benefit of ribonucleotide reductase inhibitor to THU+decitabine” value in [4] is given as “did not add further to the benefit from THU”.

As for `Nc1ncn([C@H]2C[C@H](O)[C@@H](CO)O2)c(=O)n1` [decitabine], the “increase of time-to-distress over vehicle” value in series [1] (treatment from day 21, Dec 0.2, THU-Dec 10/0.1, 5Aza 2, THU-5Aza 10/1 mg/kg sc 3×/wk) was “about 20 days”. In [5], this compound yielded a CDA upregulation of approximately 3 fold. The compound also yielded a UCK2 upregulation in series [5] of approximately 3 fold. Also, the “decrease of DCK expression at relapse” value in [6] is reported as approximately 50%. Besides, the “increase of CDA expression at relapse” value in [6] is approximately 3 fold. Further, the “increase of UCK2 expression at relapse” value in series [6] is recorded as approximately 8 fold. Also, the “average increase of CAD expression at relapse” value in [6] (not in all patients) was approximately 8 fold. In addition, the GI50 in series [7] is 100 nM; in series [10], 3000 nM; in series [11], 12000 nM. Also, the “decrease of DNMT1 protein at time-of-response compared to pre-treatment” value in [8] was approximately 50%. Moreover, the “in vivo plasma half-life” value in series [2] (in vivo) is approximately 15 min. Besides, in series [9] (human, in vivo), the myelosuppression entry is on record as “grade ¾ myelosuppression”. In series [9] (intravenous infusion, for ~72 hours), the sustained plasma concentration was more than 40 nM. Also, the “median survival (time-to-distress)” value in series [4] (Dec 0.2 mpk SC Day 1 and 2 each week) worked out at 75 days; in [4] (Dec 0.2 mpk SC Day 1 and 4 each week), 60 days; in series [4] (week-to-week alternation experiment (FIG. 28)) it was 111 days. Besides, the “human CD45+ (hCD45+) AML cells in bone marrow” value in [4] (Dec 0.3 mpk SC Day 1 and 2 each week) is recorded as approximately 26%; in [4] (Dec 0.3 mpk SC Day 1 and 4 each week), approximately 63%. Also, the “bone marrow hCD45+” value in series [4] (setting [12]) is recorded as approximately 85%. Further, the “bone marrow murine Cd45+ (murine hematopoiesis)” value in series [4] (setting [12]) is approximately 5%. In addition, in series [4] (day 63, on-therapy, flow cytometry), the “DNMT1-depletion in bone marrow cells” value was approximately 35%.

Consider `Nc1ccn([C@H]2C[C@H](O)[C@@H](CO)O2)c(=O)n1` [deoxycytidine], for which the AML cell proliferation result in [3] is reported as “did not impact proliferation”.

With `NC(=O)NO` [hydroxyurea], the “added benefit of ribonucleotide reductase inhibitor to THU+decitabine” value in series [4] is reported as “did not add further benefit to THU+decitabine”.
